Tests used:
CquiOR99 = target: T1, CquiOR99 (Culex quinquefasciatus, UniProt W0HIQ7); type: cell-based
T1 sequence (W0HIQ7 1-389): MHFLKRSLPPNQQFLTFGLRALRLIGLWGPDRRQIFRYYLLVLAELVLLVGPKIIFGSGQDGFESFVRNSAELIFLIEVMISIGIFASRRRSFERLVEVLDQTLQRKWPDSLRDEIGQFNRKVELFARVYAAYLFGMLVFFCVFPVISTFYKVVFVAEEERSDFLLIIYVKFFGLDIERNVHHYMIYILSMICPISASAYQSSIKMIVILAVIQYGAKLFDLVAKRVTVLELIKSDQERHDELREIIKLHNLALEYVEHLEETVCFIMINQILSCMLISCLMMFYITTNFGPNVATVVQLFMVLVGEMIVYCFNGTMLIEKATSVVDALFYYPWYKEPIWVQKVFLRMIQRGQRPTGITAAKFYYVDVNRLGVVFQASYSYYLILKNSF
T1 sequence (Q309I4 1-480 partner): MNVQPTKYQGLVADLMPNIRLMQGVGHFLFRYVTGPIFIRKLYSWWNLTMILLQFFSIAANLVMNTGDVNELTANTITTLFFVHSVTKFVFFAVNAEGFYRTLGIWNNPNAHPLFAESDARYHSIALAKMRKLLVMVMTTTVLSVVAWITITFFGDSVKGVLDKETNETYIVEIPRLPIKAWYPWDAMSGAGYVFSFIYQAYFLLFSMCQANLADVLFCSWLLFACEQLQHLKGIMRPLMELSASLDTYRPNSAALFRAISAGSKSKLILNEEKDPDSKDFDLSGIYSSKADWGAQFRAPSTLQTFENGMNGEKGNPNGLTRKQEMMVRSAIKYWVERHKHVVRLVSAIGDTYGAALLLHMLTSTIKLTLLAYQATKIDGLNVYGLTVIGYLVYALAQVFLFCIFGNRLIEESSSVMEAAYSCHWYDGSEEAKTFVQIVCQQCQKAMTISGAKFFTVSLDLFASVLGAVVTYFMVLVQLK

CquiOR37 = target: T2, CquiOR37 (Culex quinquefasciatus, UniProt W0HHK8); type: cell-based
T2 sequence (W0HHK8 1-385): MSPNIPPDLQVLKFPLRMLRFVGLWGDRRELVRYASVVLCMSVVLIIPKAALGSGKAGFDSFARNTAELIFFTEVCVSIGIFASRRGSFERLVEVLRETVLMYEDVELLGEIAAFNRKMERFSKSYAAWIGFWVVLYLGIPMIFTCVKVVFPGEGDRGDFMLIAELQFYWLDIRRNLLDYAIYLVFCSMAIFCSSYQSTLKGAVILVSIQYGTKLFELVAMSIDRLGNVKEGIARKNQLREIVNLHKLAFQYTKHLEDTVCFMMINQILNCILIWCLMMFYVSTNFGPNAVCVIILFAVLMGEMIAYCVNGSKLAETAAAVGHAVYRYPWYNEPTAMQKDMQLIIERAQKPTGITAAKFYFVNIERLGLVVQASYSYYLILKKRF
T2 sequence (Q309I4 1-480 partner): T1 sequence (Q309I4 1-480 partner)

SMILES: CCc1ccc(O)cc1 [4-ethylphenol]
- EC50 (CquiOR99): 0.74 µM
- EC50 (CquiOR37): 18.2 µM

SMILES: Cc1ccc(O)cc1 [4-methylphenol]
- EC50 (CquiOR99): 14.4 µM
- EC50 (CquiOR37): 6.4 µM

Source: article PMC3800558 (Insect biochemistry and molecular biology, 2013)
